Assay results as given in paper PMC4303209, “A novel phosphatidylinositol 3-kinase (PI3K) inhibitor directs a potent FOXO-dependent, p53-independent cell cycle arrest phenotype characterized by the differential induction of a subset of FOXO-regulated genes” (Breast Cancer Research : BCR, 2014).

Legend:
[1] = tested on: MCF-7 breast cancer cells; assay: Quantitative real time PCR (qRT-PCR) of selected genes; assay type: cell-based, human
Description: Total RNA was extracted by using Tri-reagent (Sigma-Aldrich). Real-time PCR was performed on a CFX-96 PCR machine (BioRad) using the SsoFastSYBR™ green master mix (BioRad) and following the manufacturer’s guidelines. Data was analysed as described in [29] using the 2^-ΔΔCT methodology.
Figure 4 Genes regulated by FOXO transcription factor and validation of key differentially regulated genes. […] Gene expression in MCF-7 breast cancer cells treated at six and twelve hours with (B) 10 nM ETP-45658 or (C) 10 nM PI-103. In each graph, error bars indicate +/− standard deviation with each gene and condition evaluated in triplicate from N = 3 independent experiments. For each analysis P values are shown (<0.05 is considered significant).
Our genome-wide array and in vitro studies have elucidated that the predominant pathway activated following exposure to ETP-45658 (as well as following PI-103 treatment) was FOXO-mediated cell cycle arrest. […] To strengthen our findings further, we validated our genome-wide array results by quantitative real-time PCR (qRT-PCR). Based on our gene expression profiling data, we selected 11 differentially regulated key genes. […] In our last group, we selected the cyclin-dependent kinase inhibitor 1A (p21), which is regulated by both FOXO and p53, BCL2 binding component 3 (PUMA) and BCL2-associated X (BAX) that are regulated by p53. MCF-7 breast cancer cells were treated with ETP-45658 and six or twelve hours post treatment the total RNA was extracted. We evaluated the expression profile of each gene (normalised to GAPDH using the 2^-ΔΔCT method described in our Materials and methods section) (Figure 4B). […] This response was conserved between the MCF-7 breast cancer cell line (as we would predict based on our array studies) as well as the U2OS osteosarcoma cell line (data not shown).

mutated BRAF = assay: Protein kinase panel screen (ProQinase), mutated BRAF; assay type: biochemical; conditions: 10 μM
Description: The protein kinase assays depicted in Figure S1 in Additional file 1 and Table S2 in Additional file 2 were performed at ProQinase, GmbH [18].
Our first objective was to analyse the biological activity of ETP-45658 including the physical and chemical properties of this compound compared to the reference pan-class I PI3K and mTOR inhibitor PI-103 [9]. We characterised the structure of each compound (Figure S1A in Additional file 1) and conducted the in silico analysis of each compound to measure their physiochemical properties (Figure S1B in Additional file 1). We determined the molecular polar surface area (PSA) of each compound, the partition coefficient, the distribution coefficient, compound solubility and the number of hydrogen donors and acceptors. […] Each indicated protein kinase activity was assayed following 10 μM treatment with either compound.
Supplementary file 13058_2014_482_MOESM1_ESM.jpeg: Additional file 1: Figure S1.: Comparative analysis of ETP-45658 and PI-103. (A) Chemical structure of ETP-45658 and PI-103. (B) Physiochemical properties of ETP-45658 and PI-103, including molecular polar surface area (PSA), partition coefficient (LogP), ACD clogD and solubility at two different pH values including Lipinsky’s Rule of Five (RoF) analysis. […] The kinase activity of PI3K was measured by using the commercial PI3-kinase HTRF™ assay mTOR activity by LanthaScreen™. […]

[2] = tested on: phosphorylated serine 473 AKT; assay: Immunoblot of AKT Ser473 phosphorylation in MCF-7 or U2OS cells; assay type: cell-based, human
Description: Figure 1 Cellular response to ETP-45658. […] Seventy-two hours post treatment, MTT assays were conducted. (B) Dose- and time-dependent analysis of Ser473 phosphorylation of AKT phosphorylation by 100nM ETP-45658 or PI-103 treatment. MCF-7 or U2OS cells were treated with the indicated concentrations (μM) of ETP-45658 (or PI-103) for four hours, then total protein was extracted and immunoblotted. For nuclear FOXO analysis, nuclear protein fractions were collected four hours post ETP-45658 (or PI-103) treatment. Nuclear FOXO3a levels were measure by immunoblotting. Nuclear fractions were confirmed by probing for lamin A/C. (C) FACS profile of MCF-7 or U2OS following 100 nM ETP-45658 treatment (20,000 events scored, N = 5). (D) Heat map for the top 100 differentially expressed genes based on hierarchical clustering using Euclidean distance metric. Red and green indicate genes that induced or repressed respectively by ETP-45658 or PI-103. Black indicates no change (N = 4). […] Numbers indicate number of genes that are exclusive to that particular category.

[3] = tested on: known toxicity pathways and canonical stress pathways; assay: Ingenuity Pathway Tox Analysis of genome-wide array data; assay type: cell-based, human; conditions: vs DMSO; MCF-7 array data
Text: While our results highlight that the primary cellular response is an anti-proliferative response (as opposed to an apoptotic response), for the development of ETP-45658 as a potential therapeutic, we questioned if ETP-45658 exposure was associated with any degree of toxicity, one of the most fundamental questions for any proposed therapeutic. We conducted a genome-wide analysis utilising an Ingenuity Pathway Analysis algorithm to address if any known toxicity pathway(s) were activated or induced after treatment with ETP-45658 (or by the reference compound PI-103). This included an extensive evaluation of the cardiac necrosis stress cascade, genes implicated in kidney failure, liver necrosis and liver hematomegaly. Furthermore, we also questioned if, on a genome-wide scale, any know canonical stress pathways were activated by ETP-45658 (or PI-103) treatment. This included the p53 pathway, PTEN aldosterone, ErbB2-ErbB3 and the ERK-MAPK signalling cascades.
Figure 2 Focused toxicity and safety assessment of ETP-45658.

[4] = MCF-7 and U2OS, as early as 30 minutes post treatment
[5] = osteosarcoma cells (U2OS), by three hours post treatment

| Structure (SMILES) | NISCH expression (array and qRT-PCR) [1] | qRT-PCR induction of p53-dependent genes [1] | qRT-PCR CCND1 transcription ([1]; 10 nM) | qRT-PCR expression of CCNG2, Cited2 and BRCA1 ([1]; 10 nM, six or twelve hours) | qRT-PCR TRAIL, FASLG or BCL2L11 transcription ([1]; six hours post treatment) | qRT-PCR TRAIL, FASLG or BCL2L11 transcription ([1]; twelve hours post treatment) | average percent inhibition (mutated BRAF) [%] | phosphorylated serine 473 AKT [2, 4] | phosphorylated serine 473 AKT [2, 5] | induction of known toxicity pathways (Ingenuity Pathway Tox Analysis) [3] |
| --- | --- | --- | --- | --- | --- | --- | --- | --- | --- | --- |
| Cn1ncc2c(N3CCOCC3)nc(-c3cccc(O)c3)nc21 [ETP-45658] | significantly upregulated | no significant induction | significantly reduced | highly significant induction | no significant change | slight increase (less than two-fold) | 38 | significant decrease | unable to detect | Neither ETP-45658 (nor PI-103) treatment significantly induced any known toxicity pathways |
| Oc1cccc(-c2nc(N3CCOCC3)c3oc4ncccc4c3n2)c1 [PI-103] | downregulated |  | significantly reduced |  |  |  | 57.7 | significant decrease | unable to detect | Neither ETP-45658 (nor PI-103) treatment significantly induced any known toxicity pathways |
